Target: T1, α-amylase
T1 construct: gene AMY2A
Experiment: EnzChek Ultra Amylase assay kit, enzyme inhibition
Format: biochemical

Compound	IC50
COc1cc2oc3cc(O)c(/C=C/C(C)(C)O)c(O)c3c(=O)c2c(CC=C(C)C)c1OC [compound 1, 1,3-dihyroxy-6,7-dimethoxy-2-(3-hydroxy-3-methylbut-1-enyl)-8-(3-methylbut-2-enyl)-xanthone]	17.8 µM
C[C@@H]1O[C@@H](Oc2cc(O)cc(O)c2C(=O)c2cccc(O)c2)[C@H](O)[C@H](O)[C@H]1O [compound 9, garcimangophenone C]	12.9 µM

— publication PMC9696494, “Garcixanthone E and Garcimangophenone C: New Metabolites from Garcinia mangostana and Their Cytotoxic and Alpha Amylase Inhibitory Potential” (Life, 2022)
